Activity calls are given as the source filed them. The calls are words filed in the database; no cut-off is given here.
Each compound was assayed against T1, Cannabinoid receptor 1 (Homo sapiens, UniProt P21554) (assay: Displacement of [3H]-CP55940 from human recombinant cannabinoid CB1 receptor expressed in HEK cell membranes incubated for 1.5 hrs by liquid scintillation counting method). Conditions: not given.
T1 sequence (P21554 whole entry): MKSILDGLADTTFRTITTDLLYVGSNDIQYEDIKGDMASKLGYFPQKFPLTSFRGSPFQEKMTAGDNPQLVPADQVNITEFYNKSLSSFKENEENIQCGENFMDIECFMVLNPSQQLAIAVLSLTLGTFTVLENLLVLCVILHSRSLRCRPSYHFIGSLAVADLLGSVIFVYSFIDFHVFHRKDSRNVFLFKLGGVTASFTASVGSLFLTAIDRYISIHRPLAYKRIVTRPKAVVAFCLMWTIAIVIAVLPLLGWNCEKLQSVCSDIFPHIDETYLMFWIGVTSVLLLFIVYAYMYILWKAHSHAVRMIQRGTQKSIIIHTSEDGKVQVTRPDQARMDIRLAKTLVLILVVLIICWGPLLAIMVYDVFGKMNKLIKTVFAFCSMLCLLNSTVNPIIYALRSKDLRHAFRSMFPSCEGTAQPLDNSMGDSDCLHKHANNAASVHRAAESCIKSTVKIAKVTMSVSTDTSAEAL
Design: species or system Cell membrane
`O=C(c1ccccc1)c1cc(O)c(-c2ccc3c(c2)OCCO3)c(O)c1` was tested, and the Ki was over 10000 nM.
With `O=C(c1ccccc1)c1cc(O)c(-c2cccc(CO)c2)c(O)c1` the Ki was over 10000 nM.
Compound `O=C(c1cc(O)c(-c2cccc(CO)c2)c(O)c1)c1cccs1` has a Ki of over 10000 nM.
With `O=C(c1ccccc1)c1cc(O)c(-c2ccncc2)c(O)c1` the Ki was over 10000 nM.
Compound `O=C(c1ccccc1)c1cc(O)c(-c2cc(C(F)(F)F)cc(C(F)(F)F)c2)c(O)c1` has a Ki of 1900 nM.
`O=C(c1ccccc1)c1cc(O)c(-c2cc(F)cc(F)c2)c(O)c1` gave a Ki of 1080 nM.

These compounds were tested against T2, Cannabinoid receptor 2 (Homo sapiens, UniProt P34972) (assay: Inverse agonist activity at human recombinant cannabinoid CB2 receptor expressed in HEK cells transfected with CNG assessed as increase in cAMP level measured up to 1 hr by ACTOne membrane potential dye based assay). Conditions: not given.
T2 sequence (P34972 whole entry): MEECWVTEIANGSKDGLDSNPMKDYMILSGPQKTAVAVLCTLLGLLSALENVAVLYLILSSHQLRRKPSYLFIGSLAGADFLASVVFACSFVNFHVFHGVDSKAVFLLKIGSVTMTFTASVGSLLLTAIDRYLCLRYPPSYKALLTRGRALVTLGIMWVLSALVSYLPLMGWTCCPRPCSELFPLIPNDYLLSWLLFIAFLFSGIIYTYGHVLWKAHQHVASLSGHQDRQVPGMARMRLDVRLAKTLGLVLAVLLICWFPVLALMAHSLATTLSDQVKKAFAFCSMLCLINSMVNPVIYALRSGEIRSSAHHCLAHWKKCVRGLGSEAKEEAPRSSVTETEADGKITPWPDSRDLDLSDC
Assay type: functional, cell-based
`O=C(c1ccccc1)c1cc(O)c(-c2ccc3c(c2)OCCO3)c(O)c1` showed an EC50 of 4900 nM.
Compound `O=C(c1ccccc1)c1cc(O)c(-c2cc(C(F)(F)F)cc(C(F)(F)F)c2)c(O)c1` has an EC50 of 372 nM.
For `O=C(c1ccccc1)c1cc(O)c(-c2cc(F)cc(F)c2)c(O)c1`, the EC50 was 1700 nM.

Same assay, conditions: time hrs <=1
With `O=C(c1ccccc1)c1cc(O)c(-c2cccc(CO)c2)c(O)c1` the pEC50 was “inactive”.
For `O=C(c1cc(O)c(-c2cccc(CO)c2)c(O)c1)c1cccs1`, the pEC50 was “inactive”.
With `O=C(c1ccccc1)c1cc(O)c(-c2ccncc2)c(O)c1` the pEC50 was “inactive”.

Each compound was assayed against T1, Cannabinoid receptor 1 (assay: Inverse agonist activity at cannabinoid CB1 receptor in human U2OS cells assessed as induction of beta-arrestin recruitment using CCF4/AM as substrate preincubated for 5 hrs followed by substrate addition and measured after 2 hrs by Tango assay). Conditions: time 7.0 hrs.
Assay type: cell-based
`O=C(c1ccccc1)c1cc(O)c(-c2cc(C(F)(F)F)cc(C(F)(F)F)c2)c(O)c1` was tested, and the pEC50 was “inactive”.
For `O=C(c1ccccc1)c1cc(O)c(-c2cc(F)cc(F)c2)c(O)c1`, the pEC50 was “inactive”.

Species: Homo sapiens
Experiment: Selectivity ratio of Ki for displacement of [3H]-CP55940 from human recombinant cannabinoid CB1 receptor expressed in HEK cell membranes to displacement of [3H]-CP55940 from human recombinant cannabinoid CB2 receptor expressed in HEK cell membranes
Conditions: not given
For `O=C(c1ccccc1)c1cc(O)c(-c2ccc3c(c2)OCCO3)c(O)c1`, the Ratio Ki was over 2.11.
For `O=C(c1ccccc1)c1cc(O)c(-c2cccc(CO)c2)c(O)c1`, the Ratio Ki was over 4.
`O=C(c1cc(O)c(-c2cccc(CO)c2)c(O)c1)c1cccs1` gave a Ratio Ki of over 1.19.
`O=C(c1ccccc1)c1cc(O)c(-c2cc(C(F)(F)F)cc(C(F)(F)F)c2)c(O)c1` was tested, and the Ratio Ki was 8.86.
Work on `O=C(c1ccccc1)c1cc(O)c(-c2cc(F)cc(F)c2)c(O)c1` yielded a Ratio Ki of 0.66.

What follows are compounds tested against T2, Cannabinoid receptor 2 (assay: Displacement of [3H]-CP55940 from human recombinant cannabinoid CB2 receptor expressed in HEK cell membranes incubated for 1.5 hrs by liquid scintillation counting method). Conditions: not given.
Design: species or system Cell membrane
`O=C(c1ccccc1)c1cc(O)c(-c2ccc3c(c2)OCCO3)c(O)c1` showed a Ki of 4740 nM.
With `O=C(c1ccccc1)c1cc(O)c(-c2cccc(CO)c2)c(O)c1` the Ki was 2490 nM.
For `O=C(c1cc(O)c(-c2cccc(CO)c2)c(O)c1)c1cccs1`, the Ki was 8380 nM.
`O=C(c1ccccc1)c1cc(O)c(-c2ccncc2)c(O)c1` showed a Ki of over 10000 nM.
`O=C(c1ccccc1)c1cc(O)c(-c2cc(C(F)(F)F)cc(C(F)(F)F)c2)c(O)c1` was tested, and the Ki was 215 nM.
Work on `O=C(c1ccccc1)c1cc(O)c(-c2cc(F)cc(F)c2)c(O)c1` yielded a Ki of 1630 nM.

The compounds below were run against T2, Cannabinoid receptor 2 (assay: Inverse agonist activity at cannabinoid CB2 receptor in human U2OS cells assessed as induction of beta-arrestin recruitment using CCF4/AM as substrate preincubated for 5 hrs followed by substrate addition and measured after 2 hrs by Tango assay). Conditions: not given.
Assay type: cell-based
In the case of `O=C(c1ccccc1)c1cc(O)c(-c2cc(C(F)(F)F)cc(C(F)(F)F)c2)c(O)c1`, the EC50 is reported as 1410 nM.
`O=C(c1ccccc1)c1cc(O)c(-c2cc(F)cc(F)c2)c(O)c1` gave an EC50 of 8910 nM.

Each compound was assayed against T1, Cannabinoid receptor 1 (assay: Inverse agonist activity at human recombinant cannabinoid CB1 receptor expressed in HEK cells transfected with CNG assessed as increase in cAMP level measured up to 1 hr by ACTOne membrane potential dye based assay relative to control). Conditions: time hrs <=1.
Assay type: functional, cell-based
In the case of `O=C(c1ccccc1)c1cc(O)c(-c2ccc3c(c2)OCCO3)c(O)c1`, the Emax is reported as “inactive”.
In the case of `O=C(c1ccccc1)c1cc(O)c(-c2cccc(CO)c2)c(O)c1`, the Emax is reported as “inactive”.
`O=C(c1cc(O)c(-c2cccc(CO)c2)c(O)c1)c1cccs1` was tested, and the Emax was “inactive”.
In the case of `O=C(c1ccccc1)c1cc(O)c(-c2ccncc2)c(O)c1`, the Emax is reported as “inactive”.
In the case of `O=C(c1ccccc1)c1cc(O)c(-c2cc(C(F)(F)F)cc(C(F)(F)F)c2)c(O)c1`, the Emax is reported as “inactive”.
In the case of `O=C(c1ccccc1)c1cc(O)c(-c2cc(F)cc(F)c2)c(O)c1`, the Emax is reported as “inactive”.

Each compound was assayed against T1, Cannabinoid receptor 1 (assay: Inverse agonist activity at cannabinoid CB1 receptor in human U2OS cells assessed as emission ratio using CCF4/AM as substrate preincubated for 5 hrs followed by substrate addition and measured after 2 hrs by Tango assay). Conditions: time 7.0 hrs.
Assay type: cell-based
`O=C(c1ccccc1)c1cc(O)c(-c2cc(C(F)(F)F)cc(C(F)(F)F)c2)c(O)c1` was tested, and the Ratio was “inactive”.
For `O=C(c1ccccc1)c1cc(O)c(-c2cc(F)cc(F)c2)c(O)c1`, the Ratio was “inactive”.

These compounds were tested against T1, Cannabinoid receptor 1 (assay: Inverse agonist activity at human recombinant cannabinoid CB1 receptor expressed in HEK cells transfected with CNG assessed as increase in cAMP level measured up to 1 hr by ACTOne membrane potential dye based assay). Conditions: time hrs <=1.
Assay type: functional, cell-based
In the case of `O=C(c1ccccc1)c1cc(O)c(-c2ccc3c(c2)OCCO3)c(O)c1`, the pEC50 is reported as “inactive”.
`O=C(c1ccccc1)c1cc(O)c(-c2cccc(CO)c2)c(O)c1` was tested, and the pEC50 was “inactive”.
`O=C(c1cc(O)c(-c2cccc(CO)c2)c(O)c1)c1cccs1` was tested, and the pEC50 was “inactive”.
`O=C(c1ccccc1)c1cc(O)c(-c2ccncc2)c(O)c1` was tested, and the pEC50 was “inactive”.
In the case of `O=C(c1ccccc1)c1cc(O)c(-c2cc(C(F)(F)F)cc(C(F)(F)F)c2)c(O)c1`, the pEC50 is reported as “inactive”.
For `O=C(c1ccccc1)c1cc(O)c(-c2cc(F)cc(F)c2)c(O)c1`, the pEC50 was “inactive”.

These compounds were tested against T2, Cannabinoid receptor 2 (assay: Inverse agonist activity at cannabinoid CB2 receptor in human U2OS cells assessed as emission ratio using CCF4/AM as substrate preincubated for 5 hrs followed by substrate addition and measured after 2 hrs by Tango assay). Conditions: filed as inverse agonist, time 7.0 hrs.
Assay type: cell-based
Compound `O=C(c1ccccc1)c1cc(O)c(-c2cc(C(F)(F)F)cc(C(F)(F)F)c2)c(O)c1` has a Ratio of 0.91.
Work on `O=C(c1ccccc1)c1cc(O)c(-c2cc(F)cc(F)c2)c(O)c1` yielded a Ratio of 2.22.

These compounds were tested against T2, Cannabinoid receptor 2 (assay: Inverse agonist activity at human recombinant cannabinoid CB2 receptor expressed in HEK cells transfected with CNG assessed as increase in cAMP level measured up to 1 hr by ACTOne membrane potential dye based assay relative to control). Conditions: filed as inverse agonist, time hrs <=1.
Assay type: functional, cell-based
Compound `O=C(c1ccccc1)c1cc(O)c(-c2ccc3c(c2)OCCO3)c(O)c1` has an Emax of 49%.
With `O=C(c1ccccc1)c1cc(O)c(-c2cc(F)cc(F)c2)c(O)c1` the Emax was 63%.

Same assay, conditions: time hrs <=1
In the case of `O=C(c1ccccc1)c1cc(O)c(-c2cccc(CO)c2)c(O)c1`, the Emax is reported as “inactive”.
`O=C(c1cc(O)c(-c2cccc(CO)c2)c(O)c1)c1cccs1` was tested, and the Emax was “inactive”.
In the case of `O=C(c1ccccc1)c1cc(O)c(-c2ccncc2)c(O)c1`, the Emax is reported as “inactive”.
Compound `O=C(c1ccccc1)c1cc(O)c(-c2cc(C(F)(F)F)cc(C(F)(F)F)c2)c(O)c1` has an Emax of 22.9%.

Reference: ChEMBL document CHEMBL4715916, “Synthesis and biological evaluation of a ring analogs of the selective CB2 inverse agonist SMM-189” (Bioorg Med Chem, 2021)
